Results taken from US9969692B2, “Process for preparing quinoline derivatives” (Exelixis, Inc., priority 2011, dated 2018).

Assay: Gravimetric vapor sorption (GVS) moisture adsorption desorption isotherm
Assay type: physicochemical
Details: 25° C. and 90% humidity
Method: A gravimetric vapor sorption (GVS) study was run using a standard procedure. Samples were run on a dynamic vapor sorption analyzer (Surface Measurement Systems) running DVSCFR software. Sample sizes were typically 10 mg. A moisture adsorption desorption isotherm was performed as outlined below. The standard isotherm experiment, performed at 25° C., is a two-cycle run, starting at 40% RH (relative humidity), increasing humidity to 90% RH, decreasing humidity to 0% RH, increasing humidity again to 90% RH, and finally decreasing humidity to 0% RH in 10% RH intervals.

weight gain (GVS): 2.5%
SMILES: COc1cc2c(Oc3ccc(NC(=O)C4(C(=O)Nc5ccc(F)cc5)CC4)cc3F)ccnc2cc1OCCCN1CCOCC1.O [crystalline Compound 1, N-[3-fluoro-4-({6-(methyloxy)-7-[(3-morpholin-4-ylpropyl)oxy]quinolin-4-yl}oxy)phenyl]-N′-(4-fluorophenyl)cyclopropane-1,1-dicarboxamide crystalline hydrate]
